Measurements: article PMC3898116, “FGT-1 is the major glucose transporter in C. elegans and is central to aging pathways” (Biochemical Journal, 2013)

Biological target: T1, hGLUT1 (Homo sapiens, UniProt P11166)
T1 construct: gene SLC2A1; untagged, expressed in Xenopus laevis oocytes from cRNA
T1 sequence (P11166 1-492): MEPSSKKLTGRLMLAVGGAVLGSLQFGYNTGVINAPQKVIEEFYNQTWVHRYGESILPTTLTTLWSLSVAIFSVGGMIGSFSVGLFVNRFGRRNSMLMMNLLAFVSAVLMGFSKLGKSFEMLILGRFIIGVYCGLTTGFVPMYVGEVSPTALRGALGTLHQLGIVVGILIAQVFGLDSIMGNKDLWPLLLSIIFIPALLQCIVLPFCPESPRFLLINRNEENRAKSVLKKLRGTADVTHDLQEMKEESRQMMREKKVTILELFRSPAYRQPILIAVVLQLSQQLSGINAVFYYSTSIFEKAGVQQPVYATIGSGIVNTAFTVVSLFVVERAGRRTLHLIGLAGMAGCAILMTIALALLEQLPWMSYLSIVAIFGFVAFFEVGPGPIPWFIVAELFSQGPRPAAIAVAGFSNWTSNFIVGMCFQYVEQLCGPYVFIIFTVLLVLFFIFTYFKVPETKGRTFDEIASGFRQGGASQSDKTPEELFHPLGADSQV
Assay: […]glucose uptake in Xenopus oocytes
Assay type: cell-based
Details: incomplete ND96 buffer, 60 min uptake; labelled compound

OC[C@H]1OC(O)[C@H](O)[C@@H](O)[C@@H]1O (stereo partly drawn) [D-glucose]
[14C]glucose uptake in Xenopus oocytes: These proteins transport glucose at levels that are comparable with GLUT1 expressed in the same system
